How the values were obtained:
glymphatic CSF influx [1] = assay: Transcranial macroscopic imaging of CSF tracer (BSA-647) influx, plasma hypertonicity in KX-anesthetized mice; type: in vivo, C57BL/6 mice
Procedure: Intracisternal injections. Mice in the KX groups were weighed and anesthetized with a mixture of ketamine (100 mg/kg, i.p.) and xylazine (10 mg/kg, i.p.). Afterwards, animals were fixed in a stereotaxic frame, and the cisterna magna was surgically exposed with the help of a stereomicroscope. The cisternal space was cannulated using a 30 G needle attached via polyethylene tubing to a Hamilton syringe. The needle was secured with cyanoacrylate glue and tracers were infused with a syringe pump (Harvard Apparatus) depending on the experimental paradigm (see below). Mice randomized to the awake group were anesthetized with 2% isoflurane, their skull cemented to a customized head plate, placed in a restraint tube, and then underwent the same surgical procedure as described above. Tracers were allowed to circulate for 30 min after the injection start time and the needle left in place for the duration of the experiment to prevent the CSF compartment from depressurizing. Core temperature (37° C.) and anesthetic depth were maintained throughout the experiment. At the end of 30 min, animals were decapitated, and the brain processed for either fluorescent or radioisotope tracer analysis.
CSF Tracers. AlexaFluor647-conjugated bovine serum albumin (BSA-647, 66 kDa, Invitrogen) was constituted in artificial CSF (0.5% m/v) and used as a fluorescent CSF tracer. […] Fluorescent tracers and antibodies were infused in a total volume of 10 μl at a rate of 2 μl/min or 1 μl/min into the cisterna magna.
Transcranial In vivo Macroscopic Imaging. For in vivo imaging, the skin covering the dorsal calvarium was incised and reflected laterally prior to cannulating the cisterna magna. The entry of CSF tracers into the brain was imaged by fluorescence macroscopy (MVX10, Olympus) using a PRIOR Lumen 1600-LED light source and Flash 4.0 digital camera (Hamamatsu). The mouse fixed on the stereotaxic frame was placed on the microscope stage and images at 20× magnification were acquired in the far-red emission channel (647 nm). Images (2048×2048 pixel; 5.7120 μm/pixel) were collected at 1 min intervals for 0-30 min following injection commencement using the MetaMorph Basic imaging software (Molecular Devices). Exposure time was held constant throughout the duration of the imaging sequence and across experimental groups.
Front tracking. To quantify the area and speed of fluorescent CSF tracer influx in the brain, inventors employed an algorithm recently developed in the context of advection-reaction-diffusion (56). Given a time series of a two-dimensional concentration field, this algorithm tracked the location of the “front” which separates low-concentration and high-concentration regions. The algorithm outputs spatially- and temporally-resolved velocity measurements quantifying the front propagation. Influx speed was calculated by averaging over the entire group data to obtain mean front speed measurements for each group. The propagation front was identified using a threshold of 175 (on an 8-bit scale of 0 to 255); however, it was noted that the results were fairly robust to different threshold choices. This same threshold was used for all-time series of images, which was justified since care was taken to maintain similar imaging conditions across all experiments. A fixed threshold preserved the physical meaning of the front and allowed for quantitative comparison between populations from different experiments.
Solutions. Control mice received isosmotic saline (0.34M NaCl in ddH2O; 20 μL/g, i.p.).

glymphatic CSF influx [2] = assay: Transcranial macroscopic imaging of CSF tracer (BSA-647) influx, plasma hypertonicity in awake mice; type: in vivo, C57BL/6 mice
Procedure: Intracisternal injections. Mice in the KX groups were weighed and anesthetized with a mixture of ketamine (100 mg/kg, i.p.) and xylazine (10 mg/kg, i.p.). Afterwards, animals were fixed in a stereotaxic frame, and the cisterna magna was surgically exposed with the help of a stereomicroscope. The cisternal space was cannulated using a 30 G needle attached via polyethylene tubing to a Hamilton syringe. The needle was secured with cyanoacrylate glue and tracers were infused with a syringe pump (Harvard Apparatus) depending on the experimental paradigm (see below). […]
Transcranial In vivo Macroscopic Imaging. […] The entry of CSF tracers into the brain was imaged by fluorescence macroscopy (MVX10, Olympus) using a PRIOR Lumen 1600-LED light source and Flash 4.0 digital camera (Hamamatsu). […]
Front tracking. To quantify the area and speed of fluorescent CSF tracer influx in the brain, inventors employed an algorithm recently developed in the context of advection-reaction-diffusion (56). […] The algorithm outputs spatially- and temporally-resolved velocity measurements quantifying the front propagation. Influx speed was calculated by averaging over the entire group data to obtain mean front speed measurements for each group. […] A fixed threshold preserved the physical meaning of the front and allowed for quantitative comparison between populations from different experiments. […]

BBB = assay: Assessment of BBB permeability (FITC-dextran extravasation); type: in vivo, C57BL/6 mice; settings: anesthetized mice, 30 min after i.p. injection
Procedure: Assessment of BBB Permeability. For quantification of BBB disruption, a 1% solution of FITC-conjugated dextran (70 kDa; Sigma-Aldrich) in normal saline (4 mL/kg of body weight) was injected via the femoral vein. The dextran was allowed to circulate for 30 min following plasma tonicity manipulations, at which point a plasma sample was taken and the mice were perfusion-fixed as described below. Positive controls received a 2M mannitol infusion via a catheter in the right external carotid artery (0.64 mL/min for 30 seconds) 5 minutes after the dextran. The brains were harvested, sectioned, and FITC extravasation was imaged and quantified (see below). Plasma concentration of the FITC dextran was calculated by diluting the plasma samples 1:4 with PBS and analyzing them in triplicate on a fluorescence microplate reader (SpectraMax M2, Molecular Devices) at 458 nm excitation, 538 nm emission, with a cutoff above 530 nm at room temperature (24° C.). Dextran concentration was estimated by comparing the relative fluorescence of the samples against a standard curve (0.0-1.0 mg/mL, 0.1 mg/mL steps; FITC-dextran 70 kDa in PBS) fitted with a linear regression. Blood samples with hemolysis were excluded from analysis due to interference with spectrophotometric absorbance readings.
Image Analysis. All images were analyzed using ImageJ software (National Institutes of Health, imagej.nih.gov/ij/) (60). […]

[3] = Intracranial pressure, arterial blood pressure and laser Doppler cerebral blood flow; type: in vivo, C57BL/6 mice
From the text: Intracranial and Arterial Blood Pressure Measurements. A separate group of animals were anesthetized with a mixture of ketamine/xylazine. Afterwards, a 30 G needle connected to rigid polyethylene tubing filled with aCSF was inserted into the cisterna magna as described above and an arterial catheter was placed in the femoral artery. The lines were connected to a pressure transducer and monitor (World Precision Instruments). Recordings were allowed to stabilize, and then recorded continuously for 35 min (5 min baseline and 30 min after i.p. injection). The signals were digitized and recorded with a DigiData 1440A digitizer and AxoScope software (Axon Instruments). The intracranial and mean arterial pressure recordings were processed and analyzed using MATLAB (MathWorks).
Laser Doppler Flowmetry. Relative changes in cerebral blood flow (rCBF) were measured using laser Doppler flowmetry (PF5010 Laser Doppler Perfusion Module with microtips, PR 418-1, Perimed). The tip of the fiber optic probe was fixed directly onto the exposed skull with cyanoacrylate glue. Signals were collected using a 1440A digitizer and AxoScope software (Axon Instruments). For each mouse, rCBF was recorded both 5 minutes before and 30 minutes after the administration of i.p. solutions. The rCBF recordings were processed and analyzed using MATLAB (MathWorks).
Consequently, assays were carried out to determine if tonicity-induced changes in one of these parameters might be responsible for the observed enhancement of glymphatic CSF influx. […] This net negative ICP resulted from the outflow of ISF across the BBB (FIG. 15D), and likely provided the necessary driving force to increase CSF influx to cerebral tissues. Importantly. this transfer of brain water to the vascular column occurred across an intact BBB (FIGS. 12A-C).

[4] = Plasma osmolality after intraperitoneal injection; type: in vivo, C57BL/6 mice; settings: i.p., KX-anesthetized mice, lasting 30 minutes
Procedure: Solutions. Control mice received isosmotic saline ([…]; 20 μL/g, i.p.). Hyperosmolality was induced either with mannitol (1M in 0.34M NaCl; 30 μL/g, i.p.) or hypertonic saline (1M NaCl in ddH2O; 20 μL/g, i.p.). Thirty minutes after intraperitoneal injection, a plasma sample was taken, and the mouse decapitated. Plasma osmolality was measured in triplicate using a micro-osmometer (Advanced Instruments).

[5] = Radioisotope influx (brain uptake of CSF-delivered tracers); settings: 30 min
Procedure: Fluorescent tracers and antibodies were infused in a total volume of 10 μl at a rate of 2 μl/min or 1 μl/min into the cisterna magna. Radioisotope tracers were infused in a total volume of 5 μl at 1 μl/min.
Radioisotope Influx. […] After 30 min, animals were rapidly decapitated, the skull and dura removed, and the brain harvested. Brain radioactivity was normalized to the total radioactivity detected in a 5 μL aliquot put directly into a scintillation vial immediately before intracisternal injection. All brain tissue was weighed and solubilized in 0.5 mL tissue solubilizer (Solvable, PerkinElmer) overnight. Upon solubilization, 5 mL of scintillation cocktail was added (Ultima Gold, PerkinElmer). The injectate controls were treated in the same way as the tissue samples. All samples were analyzed by liquid scintillation spectrometry using a scintillation counter (LS 6500 Multipurpose Scintillation Counter, Beckman Coulter). The radioactivity (disintegrations per minute: dpm) remaining in the brain after injection (percent of injected dose: %ID) was determined as
where Rb is the radioactivity remaining in the brain at the end of the experiment and Ri is the radioactivity in the injectate controls for each experiment. Influx percentage was deduced as % ID. […]

| Compound | reduction of the time to delivery of CSF tracer (glymphatic CSF influx [1]; KX-anesthetized mice, i.p.) | dorsal cortical surface covered by CSF tracer (glymphatic CSF influx [1]; KX-anesthetized mice, i.p., 30 min imaging) | increase in the influx area of CSF tracer (glymphatic CSF influx [1]; KX-anesthetized mice, i.p., vs isotonic controls) | penetration of an intracisternally-delivered CSF tracer (glymphatic CSF influx [1]; intraperitoneal) | increase of influx speeds of CSF tracer (glymphatic CSF influx [1]; intraperitoneal, intracisternally-delivered CSF tracer) | tracer influx rates across the entire dorsal cortex, faster than isotonic (glymphatic CSF influx [2]) | increase in tracer influx area (glymphatic CSF influx [2]; at 30 min) | BBB permeability (BBB) | relative cerebral blood flow (rCBF) ([3]; 30-min recording after i.p.) | ICP relative to the isotonic controls ([3]; 30 min after i.p.) | mean arterial blood pressure (MAP) ([3]; anesthetized mice, i.p.) | plasma osmolality [4] | increase in the fractional tracer uptake to brain ([5]; plasma hyperosmolality (HTS or mannitol i.p.) vs isotonic) | total injected tracer delivered to the brain parenchyma ([5]; plasma hyperosmolality (HTS or mannitol i.p.)) |
| --- | --- | --- | --- | --- | --- | --- | --- | --- | --- | --- | --- | --- | --- | --- |
| OC[C@@H](O)[C@@H](O)[C@H](O)[C@H](O)CO [mannitol] | roughly half | approximately 60% | five-fold | doubled | about 70% | roughly 1.5 fold | circa 20 fold | no significant increase | slight reduction | significantly and consistently declined | reduced | significantly elevated | – | – |
| ^14C-inulin | – | – | – | – | – | – | – | – | – | – | – | – | roughly 125% | approximately 40% |
